The values below come from ChEMBL document CHEMBL5291721, “A preclinical secondary pharmacology resource illuminates target-adverse drug reaction associations of marketed drugs” (Nat Commun, 2023).

Molecules are shown by their SMILES.

Assay [1] addresses T1, Equilibrative nucleoside transporter 1 (Homo sapiens, UniProt Q99808).
T1 sequence (Q99808 whole entry): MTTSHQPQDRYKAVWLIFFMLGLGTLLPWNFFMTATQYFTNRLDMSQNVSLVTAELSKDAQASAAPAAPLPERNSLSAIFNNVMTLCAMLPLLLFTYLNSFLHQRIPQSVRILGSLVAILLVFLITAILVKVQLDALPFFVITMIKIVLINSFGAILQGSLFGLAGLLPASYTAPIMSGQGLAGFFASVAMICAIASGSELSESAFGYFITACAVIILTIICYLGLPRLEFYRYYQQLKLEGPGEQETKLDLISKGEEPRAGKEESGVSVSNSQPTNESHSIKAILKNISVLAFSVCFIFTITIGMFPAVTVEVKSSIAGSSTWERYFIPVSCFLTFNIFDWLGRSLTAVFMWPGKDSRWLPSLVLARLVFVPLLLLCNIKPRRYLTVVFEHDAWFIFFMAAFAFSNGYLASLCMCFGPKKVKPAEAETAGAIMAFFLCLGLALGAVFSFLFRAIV

In assay [2] the target is Glutamate receptor ionotropic, NMDA 1 (Rattus norvegicus, UniProt P35439).
The target in assay [3] is Mu-type opioid receptor (Homo sapiens, UniProt P35372).
Sequence of Mu-type opioid receptor (P35372 whole entry): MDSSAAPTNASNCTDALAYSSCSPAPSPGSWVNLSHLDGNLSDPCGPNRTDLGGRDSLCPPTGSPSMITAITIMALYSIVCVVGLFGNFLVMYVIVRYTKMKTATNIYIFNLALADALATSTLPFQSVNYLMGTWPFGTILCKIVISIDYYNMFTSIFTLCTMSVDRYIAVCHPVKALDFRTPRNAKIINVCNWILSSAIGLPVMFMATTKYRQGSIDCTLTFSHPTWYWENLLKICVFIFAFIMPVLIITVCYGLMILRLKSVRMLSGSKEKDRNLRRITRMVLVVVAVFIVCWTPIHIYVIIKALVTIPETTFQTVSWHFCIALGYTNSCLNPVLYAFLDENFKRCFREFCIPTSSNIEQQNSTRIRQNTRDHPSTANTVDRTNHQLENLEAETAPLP
Assay [4] has as its target T2, Progesterone receptor (Homo sapiens, UniProt P06401).
T2 sequence (P06401 whole entry): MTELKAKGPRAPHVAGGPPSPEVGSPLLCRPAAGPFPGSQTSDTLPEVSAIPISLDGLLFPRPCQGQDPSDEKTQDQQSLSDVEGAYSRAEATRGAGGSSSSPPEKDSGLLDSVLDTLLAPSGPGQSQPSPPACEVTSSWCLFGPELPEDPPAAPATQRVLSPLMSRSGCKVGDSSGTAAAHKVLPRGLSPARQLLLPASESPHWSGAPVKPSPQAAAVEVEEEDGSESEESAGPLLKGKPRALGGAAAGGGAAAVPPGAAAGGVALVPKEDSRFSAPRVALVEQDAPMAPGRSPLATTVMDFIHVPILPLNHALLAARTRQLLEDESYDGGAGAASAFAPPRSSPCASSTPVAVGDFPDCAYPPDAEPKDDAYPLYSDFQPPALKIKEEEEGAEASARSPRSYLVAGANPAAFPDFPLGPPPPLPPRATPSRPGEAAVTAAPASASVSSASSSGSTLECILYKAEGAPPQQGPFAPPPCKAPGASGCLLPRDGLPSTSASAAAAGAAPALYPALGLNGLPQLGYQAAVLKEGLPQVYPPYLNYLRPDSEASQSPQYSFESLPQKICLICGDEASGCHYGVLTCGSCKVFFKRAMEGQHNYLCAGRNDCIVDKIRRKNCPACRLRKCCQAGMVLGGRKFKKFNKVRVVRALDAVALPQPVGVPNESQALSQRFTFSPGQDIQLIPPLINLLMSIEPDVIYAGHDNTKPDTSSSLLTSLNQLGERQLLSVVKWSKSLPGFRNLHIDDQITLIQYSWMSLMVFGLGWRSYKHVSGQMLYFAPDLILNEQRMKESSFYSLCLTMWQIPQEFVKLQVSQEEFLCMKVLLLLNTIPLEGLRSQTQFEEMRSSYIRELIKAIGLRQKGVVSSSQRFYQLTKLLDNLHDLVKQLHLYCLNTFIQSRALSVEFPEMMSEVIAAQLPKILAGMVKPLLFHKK

Assay [5] addresses D(3) dopamine receptor (Homo sapiens, UniProt P35462).
Assay [6] addresses Neuronal acetylcholine receptor subunit alpha-4 (Homo sapiens, UniProt P43681).
For assay [7], the target named is T3, Adenosine receptor A1 (Homo sapiens, UniProt P30542).
T3 sequence (P30542 whole entry): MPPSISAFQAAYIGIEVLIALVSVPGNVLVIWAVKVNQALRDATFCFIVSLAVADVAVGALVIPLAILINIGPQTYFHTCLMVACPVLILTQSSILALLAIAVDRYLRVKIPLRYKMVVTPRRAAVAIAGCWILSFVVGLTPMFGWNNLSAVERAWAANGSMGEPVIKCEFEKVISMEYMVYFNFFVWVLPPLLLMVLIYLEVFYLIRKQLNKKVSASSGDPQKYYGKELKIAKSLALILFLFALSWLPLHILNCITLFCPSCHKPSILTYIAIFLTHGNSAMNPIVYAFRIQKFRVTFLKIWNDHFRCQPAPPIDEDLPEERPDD

Assay [8] has as its target T4, Thromboxane A2 receptor (Homo sapiens, UniProt P21731).
T4 sequence (P21731 whole entry): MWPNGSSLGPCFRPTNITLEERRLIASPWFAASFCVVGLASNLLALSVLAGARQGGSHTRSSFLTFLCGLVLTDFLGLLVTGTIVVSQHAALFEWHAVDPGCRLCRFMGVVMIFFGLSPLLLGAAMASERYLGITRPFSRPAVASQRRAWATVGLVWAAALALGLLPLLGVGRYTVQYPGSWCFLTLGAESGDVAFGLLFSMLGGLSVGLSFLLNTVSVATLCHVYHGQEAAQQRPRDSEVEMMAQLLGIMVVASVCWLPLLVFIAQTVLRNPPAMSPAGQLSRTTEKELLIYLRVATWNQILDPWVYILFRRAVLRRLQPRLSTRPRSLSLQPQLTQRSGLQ

Assay [9] addresses Vasopressin V2 receptor (Homo sapiens, UniProt P30518).
The target in assay [10] is T5, Alpha-1A adrenergic receptor (Homo sapiens, UniProt P35348).
T5 sequence (P35348 whole entry): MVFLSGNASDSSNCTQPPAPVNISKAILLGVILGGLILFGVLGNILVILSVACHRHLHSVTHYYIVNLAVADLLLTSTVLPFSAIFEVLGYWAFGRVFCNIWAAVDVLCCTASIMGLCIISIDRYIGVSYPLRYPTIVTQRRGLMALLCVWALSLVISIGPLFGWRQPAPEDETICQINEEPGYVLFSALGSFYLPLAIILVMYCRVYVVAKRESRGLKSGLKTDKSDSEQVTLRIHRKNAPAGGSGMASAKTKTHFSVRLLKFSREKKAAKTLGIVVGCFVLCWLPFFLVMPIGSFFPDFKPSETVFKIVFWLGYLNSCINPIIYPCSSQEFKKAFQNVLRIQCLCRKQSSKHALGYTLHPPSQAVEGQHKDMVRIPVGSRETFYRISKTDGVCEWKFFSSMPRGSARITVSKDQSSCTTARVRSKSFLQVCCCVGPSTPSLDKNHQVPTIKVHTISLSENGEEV
It counts as functional, cell-based.

Assay [11] concerns the target Motilin receptor (Homo sapiens, UniProt O43193).
Also: assay procedure not described here.

Sequence of Motilin receptor (O43193 whole entry): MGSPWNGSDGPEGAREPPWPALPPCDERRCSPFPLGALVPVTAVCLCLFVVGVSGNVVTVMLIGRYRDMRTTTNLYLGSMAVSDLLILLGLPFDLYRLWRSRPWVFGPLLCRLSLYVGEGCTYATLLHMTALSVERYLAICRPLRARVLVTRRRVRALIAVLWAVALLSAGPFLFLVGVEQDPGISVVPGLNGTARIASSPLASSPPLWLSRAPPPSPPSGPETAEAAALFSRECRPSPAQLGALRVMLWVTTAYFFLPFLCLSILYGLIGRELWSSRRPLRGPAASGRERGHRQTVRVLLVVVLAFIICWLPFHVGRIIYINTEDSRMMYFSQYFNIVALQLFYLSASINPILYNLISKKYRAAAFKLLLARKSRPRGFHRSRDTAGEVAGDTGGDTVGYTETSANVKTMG
Sequence of Vasopressin V2 receptor (P30518 whole entry): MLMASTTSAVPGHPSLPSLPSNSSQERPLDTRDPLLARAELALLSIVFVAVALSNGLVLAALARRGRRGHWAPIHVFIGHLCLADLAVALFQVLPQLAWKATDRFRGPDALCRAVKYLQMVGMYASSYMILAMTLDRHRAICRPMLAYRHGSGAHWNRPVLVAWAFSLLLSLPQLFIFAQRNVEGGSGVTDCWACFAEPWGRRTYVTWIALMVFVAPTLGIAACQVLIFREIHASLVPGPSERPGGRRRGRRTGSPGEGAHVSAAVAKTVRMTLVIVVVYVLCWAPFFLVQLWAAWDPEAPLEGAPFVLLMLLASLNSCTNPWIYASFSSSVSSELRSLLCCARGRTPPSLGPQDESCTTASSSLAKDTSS
Sequence of D(3) dopamine receptor (P35462 whole entry): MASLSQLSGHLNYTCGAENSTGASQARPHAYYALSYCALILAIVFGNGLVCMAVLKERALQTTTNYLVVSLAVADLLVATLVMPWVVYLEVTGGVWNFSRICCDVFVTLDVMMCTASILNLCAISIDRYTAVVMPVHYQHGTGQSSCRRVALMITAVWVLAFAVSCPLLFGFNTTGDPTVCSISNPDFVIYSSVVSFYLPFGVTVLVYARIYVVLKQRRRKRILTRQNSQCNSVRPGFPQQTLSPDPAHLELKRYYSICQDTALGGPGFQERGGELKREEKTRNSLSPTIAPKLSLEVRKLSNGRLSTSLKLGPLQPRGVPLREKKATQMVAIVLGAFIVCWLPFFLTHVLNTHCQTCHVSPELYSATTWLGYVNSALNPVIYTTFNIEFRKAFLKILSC
Sequence of Neuronal acetylcholine receptor subunit alpha-4 (P43681 whole entry): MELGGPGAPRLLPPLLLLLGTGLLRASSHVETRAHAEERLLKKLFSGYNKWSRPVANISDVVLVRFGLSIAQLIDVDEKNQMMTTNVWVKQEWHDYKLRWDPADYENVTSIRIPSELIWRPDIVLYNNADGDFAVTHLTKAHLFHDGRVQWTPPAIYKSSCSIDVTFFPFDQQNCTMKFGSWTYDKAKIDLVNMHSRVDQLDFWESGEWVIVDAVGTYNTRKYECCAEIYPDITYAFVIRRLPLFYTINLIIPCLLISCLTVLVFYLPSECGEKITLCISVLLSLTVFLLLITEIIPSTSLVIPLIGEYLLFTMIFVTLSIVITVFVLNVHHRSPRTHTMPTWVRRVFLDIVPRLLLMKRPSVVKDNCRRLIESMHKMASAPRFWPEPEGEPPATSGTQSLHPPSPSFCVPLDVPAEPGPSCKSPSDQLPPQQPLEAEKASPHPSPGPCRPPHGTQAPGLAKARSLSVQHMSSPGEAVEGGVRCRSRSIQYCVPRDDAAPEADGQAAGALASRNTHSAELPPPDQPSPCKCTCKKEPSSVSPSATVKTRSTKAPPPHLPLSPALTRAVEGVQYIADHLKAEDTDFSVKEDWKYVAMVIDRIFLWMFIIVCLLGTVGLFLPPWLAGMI

Regarding `CC(O)(CS(=O)(=O)c1ccc(F)cc1)C(=O)Nc1ccc(C#N)c(C(F)(F)F)c1` (stereo unspecified) [BICALUTAMIDE], the AC50 in assay [1] was over 30 µM; in assay [2], over 10 µM; in [3], over 30 µM; in [4], 0.46 µM; in assay [5], over 10 µM; in [6], over 30 µM. Besides, the AC50 in [7] was over 30 µM; in assay [8] it was over 30 µM; in [9], over 30 µM; in assay [10], over 3 µM; in assay [11] it was over 30 µM.

On to `CC(=O)OCC(=O)[C@@]1(O)CC[C@H]2[C@@H]3CCC4=CC(=O)CC[C@]4(C)[C@H]3[C@@H](O)C[C@@]21C` [HYDROCORTISONE ACETATE], for which the concentration at half-maximal activity (AC50) in assay [3] is over 30 µM; in assay [4], 7.67 µM; in assay [10] it was over 30 µM.

Take `CC(COc1ccccc1)NC(C)C(O)c1ccc(O)cc1` (stereo unspecified) [ISOXSUPRINE]: the values for the AC50 in assay [3], in assay [4] and in assay [10] were 8.69 µM, over 30 µM and 1.04 µM, respectively.

For the molecule `O=C(CCC/C=C\C[C@@H]1[C@@H](CC[C@@H](O)CCc2ccccc2)[C@H](O)C[C@@H]1O)OCCCCO[N+](=O)[O-]` [LATANOPROSTENE BUNOD], the values for the AC50 in assay [3], in assay [4] and in assay [10] were over 30 µM, over 30 µM and over 10 µM, respectively.

Regarding `Cc1oc(=O)oc1COC(=O)[C@@H]1N2C(=O)[C@@H](NC(=O)[C@H](N)c3ccccc3)[C@H]2SC1(C)C` [LENAMPICILLIN], the AC50 in assay [3] is over 30 µM; in [4], over 30 µM; in assay [10] it was 24.5 µM.

Regarding `CC1(CCN2CCCCC2)C(=O)CCc2ccccc21` (stereo unspecified) [NEPINALONE], the AC50 in assay [3], in [4] and in assay [10] was over 30 µM in each case.

As to `COC(=O)C[C@](O)(CCCC(C)(C)O)C(=O)O[C@@H]1C(OC)=C[C@]23CCCN2CCc2cc4c(cc2[C@H]13)OCO4` [OMACETAXINE MEPESUCCINATE], the AC50 in assay [3], in assay [4] and in [10] was over 30 µM throughout.

For the molecule `COc1cccc(C(=O)CCN[C@@H](C)[C@H](O)c2ccccc2)c1` [OXYFEDRINE], the values for the half-maximal activity concentration (AC50) in assay [3], in [4] and in assay [10] were 2.7 µM, over 30 µM and 0.205 µM, respectively.

With `CC[N+](C)(CC)CCOC(=O)C(O)(c1ccccc1)C1CCCCC1` (stereo unspecified) [OXYPHENONIUM], the concentration at half-maximal activity (AC50) in [3], in assay [4] and in [10] was over 30 µM throughout.

`C[C@@H]1C[C@H]2[C@@H]3C[C@H](F)C4=CC(=O)C=C[C@]4(C)[C@H]3[C@@H](O)C[C@]2(C)[C@@]1(O)C(=O)CO` [PARAMETHASONE]: the AC50 is over 30 µM in assay [3], 5.1 µM in assay [4] and over 30 µM in [10].

Take `CCC[C@H](N[C@@H](C)C(=O)N1[C@H](C(=O)O)C[C@@H]2CCCC[C@@H]21)C(=O)OCC` [PERINDOPRIL]: the AC50 in assay [3], in [4] and in assay [10] was over 30 µM throughout.

As to `NNCCc1ccccc1` [PHENELZINE], the AC50 was over 30 µM in [3], over 30 µM in assay [4] and over 1 µM in assay [10].

Regarding `N[C@@H](Cc1ccccc1)C(=O)O` [PHENYLALANINE], the AC50 in assay [3], in assay [4] and in assay [10] was over 30 µM each time.

Turning to `CCCn1cnc2c1c(=O)n(CCCCC(C)=O)c(=O)n2C` [PROPENTOFYLLINE], the AC50 in assay [3], in [4] and in assay [10] was over 30 µM throughout.

`COC(=O)[C@H]1[C@H]2C[C@@H]3c4[nH]c5cc(OC)ccc5c4CCN3C[C@H]2C[C@@H](OC(=O)c2cc(OC)c(OC)c(OC)c2)[C@@H]1OC` [RESERPINE]: the AC50 in [1] is 28.5 µM; in assay [2], over 10 µM; in [3], 3.77 µM; in assay [4] it was over 30 µM; in assay [5] it was over 30 µM; in [6] it was over 10 µM. The AC50 is over 30 µM in assay [7]; over 10 µM in [8]; over 10 µM in assay [9]; over 30 µM in assay [10]; over 10 µM in assay [11].

Regarding `COc1cc(C)c2c(Oc3cccc(C(F)(F)F)c3)c(OC)cc(NC(C)CCCN)c2n1` (stereo unspecified) [TAFENOQUINE], the AC50 in [3] is 20.6 µM; in assay [4], 4.23 µM; in assay [10], over 3 µM.

On to `CCCSc1nc(N[C@@H]2C[C@H]2c2ccc(F)c(F)c2)c2nnn([C@@H]3C[C@H](OCCO)[C@@H](O)[C@H]3O)c2n1` [TICAGRELOR], for which the AC50 in assay [1] is 0.365 µM; in assay [3], over 30 µM; in assay [4] it was 7.6 µM; in [10], over 10 µM.

On to `Cc1ccc(C(=O)C(C)CN2CCCCC2)cc1` (stereo unspecified) [TOLPERISONE], for which the AC50 in assay [3], in assay [4] and in assay [10] was over 30 µM in each case.
